Measurements published in ChEMBL document CHEMBL4433249, “New sensible method to quantize the intestinal absorption of receptor ligands” (Bioorg Med Chem, 2019).

Tests used:
[1] = Drug retention in Wistar rat everted gut sac at 300 nM; format: ADME, tissue-based, Intestine; settings: 0.3 µM
[2] = Apparent permeability of the compound across Wistar rat everted gut sac at 3000 nM; format: ADME, tissue-based, Intestine
[3] = (§1) Drug absorption in Wistar rat small intestinal serosal fluid assessed as displacement of [3H]HEMADO from recombinant human A3 receptor expressed in CHO cells at 300 nM exposed to serosal fluid derived from 60 mins compound treated sac followed by further incubation for 3 hrs by scintillation counting based radioligand binding assay; format: cell-based; settings: 0.3 µM
[4] = Apparent permeability of the compound across Wistar rat everted gut sac at 1000 nM; format: ADME, tissue-based, Intestine
[5] = Drug absorption in Wistar rat small intestinal serosal fluid at 10000 nM incubated for 60 mins by HPLC-DAD analysis; format: ADME; settings: 1 h, 10 µM
[6] = Drug retention in Wistar rat everted gut sac at 1000 nM; format: ADME, tissue-based, Intestine; settings: 1 µM
[7] = Drug retention in Wistar rat everted gut sac at 10000 nM; format: ADME, tissue-based, Intestine; settings: 10 µM
[8] = as §1, with “10000” for “300”; format: cell-based; settings: 10 µM
[9] = as §1, with “mucosal” for “serosal”, “1000” for “300”; format: cell-based, Mucosa of small intestine; settings: 1 µM
[10] = as §1, with “mucosal” for “serosal”, “10000” for “300”; format: cell-based, Mucosa of small intestine; settings: 10 µM
[11] = Drug absorption in Wistar rat everted gut sac at 10000 nM; format: ADME, tissue-based, Intestine; settings: 10 µM
[12] = as §1, with “mucosal” for “serosal”, “3000” for “300”; format: cell-based, Mucosa of small intestine; settings: 3 µM
[13] = Apparent permeability of the compound across Wistar rat everted gut sac at 300 nM; format: ADME, tissue-based, Intestine
[14] = as §1, with “mucosal” for “serosal”; format: cell-based, Mucosa of small intestine; settings: 0.3 µM
[15] = Drug absorption in Wistar rat small intestinal serosal fluid at 3000 nM incubated for 60 mins by HPLC-DAD analysis; format: ADME; settings: 1 h, 3 µM
[16] = as §1, with “1000” for “300”; format: cell-based; settings: 1 µM
[17] = Drug absorption in Wistar rat everted gut sac at 300 nM; format: ADME, tissue-based, Intestine; settings: 0.3 µM
[18] = as §1, with “3000” for “300”; format: cell-based; settings: 3 µM
[19] = Drug absorption in Wistar rat everted gut sac at 1000 nM; format: ADME, tissue-based, Intestine; settings: 1 µM
[20] = Apparent permeability of the compound across Wistar rat everted gut sac at 10000 nM; format: ADME, tissue-based, Intestine
[21] = Drug absorption in Wistar rat everted gut sac at 3000 nM; format: ADME, tissue-based, Intestine; settings: 3 µM
[22] = Drug retention in Wistar rat everted gut sac at 3000 nM; format: ADME, tissue-based, Intestine; settings: 3 µM

SMILES: CNC(=O)[C@H]1O[C@@H](n2cnc3c(NC)nc(C#Cc4ccccc4)nc32)[C@H](O)[C@@H]1O
- Drug uptake [1]: 44%
- Papp at 3 µM [2]: 8.5 ×10⁻⁶ cm/s
- Drug absorption [3]: 36 nM
- Papp at 1 µM [4]: 8.4 ×10⁻⁶ cm/s
- Drug absorption [5]: 2000 nM
- Drug uptake [6]: 65%
- Drug uptake [7]: 67%
- Drug absorption [8]: 1180 nM
- Drug absorption [9]: 224 nM
- Drug absorption [10]: 2088 nM
- Drug absorption [11]: 11.8%
- Drug absorption [12]: 857 nM
- Papp at 0.3 µM [13]: 8.5 ×10⁻⁶ cm/s
- Drug absorption [14]: 133 nM
- Drug absorption [15]: 550 nM
- Drug absorption [16]: 119 nM
- Drug absorption [17]: 12%
- Drug absorption [18]: 373 nM
- Drug absorption [19]: 11.9%
- Papp at 10 µM [20]: 8.4 ×10⁻⁶ cm/s
- Drug absorption [21]: 12.4%
- Drug uptake [22]: 59%
